Counter-ions that a name gives are not always drawn.
Test system: lubricin
Format: cell-based
Conditions: lubricin expression; primary human synovial fibroblasts; cells lysed after 48-72 hours; each supplement in 6 wells
Method: To identify substances having the ability to lubricate synovial joints, we first screened a library of substances for the ability to induce expression and secretion of endogenous lubricin in cultured synovial fibroblasts. A library of nutritional supplements containing 175 natural compounds was made using a natural compound collection. Each supplement was dissolved in water to an approximate concentration of 10 mM. 96-well daughter plates were made and plates were stored at −20° C.
Human synovial fibroblasts were plated the evening of the first day of the assay and grown overnight. In the morning of day 2, a supplement solution was added to each well of the 96-well plate. Each supplement was tested in 6 different wells to provide enough separate measurements to allow a statistical analysis of the results of the assay. After 48-72 hours, cells were lysed using a non-ionic detergent and supernatants containing cellular extracts were collected. Each supernatant was assayed for lubricin expression using any of the two methods described below.
We have developed two methods to measure the expression of lubricin, both of which are based on a sandwich assay. In the first sandwich assay, concanavilin A (a lectin) is used to capture lubricin while peanut agglutinin (a lectin) is used to detect proteins secreted by synovial fibroblasts. In contrast, the second assay relies on a rabbit polyclonal antibody for both the capture and detection of lubricin secreted by fibroblasts. In both assays, purified lubricin was used as a calibrator.
A substance that raised the level of measured lubricin in a significant manner when analyzed by t-test was considered a potentially efficacious substance useful for the present invention. All significant results were repeated in two additional experiments. […] In this regard, the 16 compounds that increased lubricin in the lectin-based assay were the same 16 compounds that increased lubricin levels in the antibody-based assay. […] Compounds that increase lubricin expression in synovial fibroblasts are indicated in Table 1 and the level of increase in lubricin expression is shown in Table 2 and FIG. 2.
Substances from the nutritional supplement library were screened for their ability to stimulate lubricin expression in primary human synovial fibroblasts. Cells were cultured in the presence or absence of each substance and lubricin expression was measured using the two detection assays discussed below.
In both assays, the cellular content of synovial cells was extracted as follows. Following the removal of culture media, cells were washed twice with D-PBS. Cells were first incubated in 500 μL of 1% Triton in D-PBS for five minutes and then mechanically disrupted using a pipette to ensure that all cells detach from the plates. The Triton solution containing the cells was transferred to an eppendorf and stored on ice. Samples were sonicated for three seconds and centrifuged for five minutes. The supernatant containing the cellular extracts was transferred to a fresh tube and tested for lubricin expression.

| Molecule | Percent stimulation relative to untreated control Adjusted for background [%] |
| --- | --- |
| C[C@]12CCC(=O)C=C1CC[C@@H]1[C@@H]2CC[C@]2(C)C(=O)CC[C@@H]12 [Compound G-57, Androstenedione] | 219 |
| Bromelain [Compound G126] | 75 |
| N[C@@H](CS)C(=O)O [Compound G-22, L-Cysteine] | 363 |
| Cc1ncc(C[n+]2csc(CCO)c2C)c(N)n1 [Compound G-27, Thiamin HCl] | 267 |
| CC(C)(CO)[C@@H](O)C(=O)NCCC(=O)O [Compound G-35, Pantothenic Acid] | 154 |
| O=c1c(O)c(-c2ccc(O)c(O)c2)oc2cc(O)cc(O)c12 [Compound G-15, Quercetin] | 118 |
| CCCCCCCCCCCCCCCCCCCCCCCCCCCCO [Compound G-5, Octacosanol] | 307 |
| CSCC[C@H](N)C(=O)O [Compound G66, L-Methionine] | 234 |

From US20060240037A1, “Methods and compositions for the treatment and prevention of degenerative joint disorders” (priority 2003, published 2006)
